From patent US20250177324A1, “A[…], AND PREPARATION METHOD THEREFOR AND USE THEREOF” (SHANGHAI ZHIGEN PHARMACEUTICAL & TECHNOLOGY CO. LTD., priority 2022, published 2025)
Where a name gives a salt, the structure may show the parent alone. Read-outs that look alike come from different tables or passages of the source.

Assays:
[1] = Solid-state chemical stability under different storage conditions (liquid chromatography); type: physicochemical; settings: for Stability of solid state compound, 0 Days (%): liquid chromatography
Procedure: The HPLC conditions were as follows:
Configuration of test solution: appropriate amount of sample was dissolved and diluted with a diluent (0.03 mol/L phosphate buffer-acetonitrile (80:20)) to make 1 mg/mL solution.
Chromatographic conditions: according to the high performance liquid chromatography (Chinese Pharmacopoeia 2020 version of the four general 0512) test, using octadecyl-bonded silica gel (Agilent Eclipse Plus C18, 4.6 mm*250 mm, 5.0 μm, P/N for 959990-902 or a chromatographic column with equivalent performance) as a filler; 0.03 mol/L phosphate buffer (4.08 g of potassium dihydrogen phosphate was dissolved in 1000 ml of water and shaken well) was used as mobile phase A and acetonitrile as mobile phase B at a flow rate of 1 ml/min, the column temperature was 30° C., the detection wavelength was 220 nm, the injection volume was 10 ul, and the sample plate was controlled to 8° C. and running for 65 min. Gradient elution was performed according to the following table: […]
Configuration of test solution: appropriate amount of the product was dissolved and diluted with a diluent (0.1% phosphoric acid-acetonitrile (80:20)) to make 1 mg/mL solution.
Chromatographic conditions: according to the high performance liquid chromatography (Chinese Pharmacopoeia 2020 version of the four general 0512) test, using octadecyl bonded silica gel (Agilent Eclipse Plus C18, 4.6 mm*250 mm, 5.0 μm, P/N 959990-902 or a chromatographic column with equivalent performance) as a filler; 0.1% phosphate buffer (1 ml of phosphoric acid in 1000 ml of water and shake well) as mobile phase A, acetonitrile as mobile phase B, flow rate of 1 ml/min, column temperature of 30° C., detection wavelength of 220 nm, injection volume of 10 ul, running for 48 minutes. Gradient elution was performed according to the following table: […]

C57 mice = experiment: Forced swim test of oral administration in mice (antidepressant activity); type: in vivo; settings: Mus musculus, po, reduction of immobility time vs blank group, single gavage 20 mg/kg
Procedure: To investigate the effects of different compounds on depression-like behavior in C57 mice by single oral administration of 20 mg/kg for 1 h and 24 h followed by forced swimming experiment, respectively.
The experimental animals were 6-week-old C57 mice, male, C57 breed mice purchased from Shanghai Slaughter Laboratory Animal Co. Ltd, weighing 20.45±0.19 g. The animals arrived at the Animal Breeding Center of the Shanghai Institute of Pharmaceutical Sciences, Chinese Academy of Sciences (Animal Production License: SCXK9[Shanghai]2004-0002, Use License: SYXK [Shanghai]2003-0029) before the experiments and were acclimated to the animal facilities for more than 3 days, 6 animals/cage were feed. The feeding environment was room temperature 23±0.2° C. and 12/12 h day/night alternating light and dark. Prior to behavioral testing, animals were moved to the behavioral testing room 2 hours in advance to acclimatize them to the environment and reduce their nervousness.
Preparation of the test material: the test compounds were weighed and dissolved in 0.9% NaCl solution, mixed well, and prepared into 1 mg/ml and 2 mg/ml solution for use, respectively.
24 h prior to drug administration, mice were placed in a cylindrical tank to acclimatize to the water environment for 10 min. On the day of the behavioral test, the animals were administered the drug once, by gavage/intraperitoneal injection at 1 h and 24 h prior to the behavioral test, respectively (as shown in Table 1).
The antidepressant effect of the compounds was evaluated by their ability to cause a reduction in the immobility time of the animals in the forced swim test compared to the blank group.

Structure (SMILES): Cl.N[C@]1(c2ccc(C(F)(F)F)cc2)CCC[C@H](O)C1=O [Comparative compound 2, reference compound]
- Stability of solid state compound, 0 Days (%) ([1]; 40° C., 75% RH): 99.48%
- Stability of solid state compound, 10 Days (%) ([1]; 40° C., 75% RH): 97.11%
- Stability of solid state compound, 30 Days (%) ([1]; 40° C., 75% RH): 94.26%
- Stability of solid state compound, 60 Days (%) ([1]; 40° C., 75% RH, 60 days): 89.97%

Structure (SMILES): C[C@@H]1CC[C@@](N)(c2ccccc2Cl)C(=O)[C@@H]1O [Comparative compound 3, reference compound]
- inhibition in vivo at 20 mg/kg (C57 mice; test 1 h after dosing, read-out: 1 h inhibition (%)): 22.6 ± 2.7%
- inhibition in vivo at 20 mg/kg (C57 mice; test 24 h after dosing, read-out: 24 h inhibition (%)): 23.7 ± 3.2%

Structure (SMILES): Cl.N#Cc1cccc(C2(N)CCCC(O)C2=O)c1 (stereo not shown) [Comparative compound 7, reference compound]
- Stability of solid state compound, 0 Days (%) ([1]; 40° C., 75% RH): 98.1%
- Stability of solid state compound, 5 Days (%) ([1]; 40° C., 75% RH): 87.5%

Structure (SMILES): CN[C@@]1(c2ccc(C(F)(F)F)cc2)CCC[C@@H](O)C1=O.Cl [Comparative compound 8, reference compound]
- Stability of solid state compound, 0 Days (%) ([1]; 40° C., 75% RH): 98.4%
- Stability of solid state compound, 5 Days (%) ([1]; 40° C., 75% RH): 73.0%

Structure (SMILES): CCN[C@@]1(c2ccc(C(F)(F)F)cc2)CCC[C@@H](O)C1=O.Cl [Comparative compound 9, reference compound]
- Stability of solid state compound, 0 Days (%) ([1]; 25° C., 60% RH): 98.2%
- Stability of solid state compound, 10 Days (%) ([1]; 25° C., 60% RH): 96.8%
- Stability of solid state compound, 30 Days (%) ([1]; 25° C., 60% RH): 61%

Structure (SMILES): CC(=O)N[C@@]1(c2ccc(C(F)(F)F)cc2)CCC[C@@H](O)C1=O [Comparative compound 10, reference compound]
- Stability of solid state compound, 0 Days (%) ([1]; 25° C., 60% RH): 99.77%
- Stability of solid state compound, 10 Days (%) ([1]; 25° C., 60% RH): 99.69%
- Stability of solid state compound, 30 Days (%) ([1]; 25° C., 60% RH): 97.51%

Structure (SMILES): CNC1(c2cccc(OC(F)(F)F)c2)CCCC(O)C1=O.Cl (stereo not shown) [Comparative compound 11, reference compound]
- Stability of solid state compound, 0 Days (%) ([1]; 40° C., 75% RH): 98.15%
- Stability of solid state compound, 5 Days (%) ([1]; 40° C., 75% RH): 87.8%
- Stability of solid state compound, 10 Days (%) ([1]; 40° C., 75% RH): 75.44%

Structure (SMILES): Cl.NC1(c2cccc(F)c2F)CCCC(O)C1=O (stereo not shown) [Comparative compound 12, reference compound]
- Stability of solid state compound, 0 Days (%) ([1]; 40° C., 75% RH): 97.16%
- Stability of solid state compound, 30 Days (%) ([1]; 40° C., 75% RH): 94.59%

Structure (SMILES): Cl.NC1(c2c(F)cc(F)cc2F)CCCC(O)C1=O (stereo not shown) [Comparative compound 13, reference compound]
- Stability of solid state compound, 0 Days (%) ([1]; 40° C., 75% RH): 98.31%
- Stability of solid state compound, 10 Days (%) ([1]; 40° C., 75% RH): 97.05%
- Stability of solid state compound, 30 Days (%) ([1]; 40° C., 75% RH): 96.04%

Structure (SMILES): Cl.NC1(c2cccc(OC(F)(F)F)c2F)CCCC(O)C1=O (stereo not shown) [Comparative compound 14, reference compound]
- Stability of solid state compound, 0 Days (%) ([1]; 40° C., 75% RH): 98.58%
- Stability of solid state compound, 30 Days (%) ([1]; 40° C., 75% RH): 93.96%

Structure (SMILES): CC(=O)N[C@@]1(c2ccc(C(F)(F)F)cc2)CCC[C@](C)(O)C1=O [Compound 37, N-((1R,3S)-3-hydroxy-3-methyl-2-oxo-1-(4-(trifluoromethyl)phenyl)cyclohexyl)acetamide]
- Stability of solid state compound, 0 Days (%) ([1]; 25° C., 60% RH): 99.69%
- Stability of solid state compound, 10 Days (%) ([1]; 25° C., 60% RH): 99.65%
- Stability of solid state compound, 30 Days (%) ([1]; 25° C., 60% RH): 99.69%

Structure (SMILES): CC1(O)CCCC(N)(c2cccc(OC(F)(F)F)c2F)C1=O (stereo not shown) [Compound 43, 2-amino-2-(2-fluoro-3-(trifluoromethoxy)phenyl)-6-hydroxy-6-methylcyclohexan-1-one hydrochloride]
- Stability of solid state compound, 0 Days (%) ([1]; 40° C., 75% RH): 98.73%
- Stability of solid state compound, 30 Days (%) ([1]; 40° C., 75% RH): 98.75%
